# Source: US20040191287A1, “Fumigation process for stored food grains” (priority 2003, published 2004)
# Read-outs that look alike come from different tables or passages of the source.
# Tests used:
# rat [1] = conditions: 1 hr; cited from earlier work
# [2] = test system: S. oryzae mixed-age cultures; conditions: 72 hours at 26±2° C., 19.5 liter tin container with 12 kg wheat
# Description: (§3) Fumigation experiments with allyl acetate have been conducted in 19.5 litre capacity tin containers with mixed- age cultures of R. dominica, S. oryzae and T. castaneum as the test insects.
# (§4) Mixed-age cultures of S. oryzae and R. dominica were obtained by allowing 300 adults of the individual species to breed in about 1 kg of wheat in a 2-liter glass jar. To obtain mixed- age culture of T. castaneum about 300 adults were released into 1 kg of whole-wheat flour plus 5% dried yeast in a 2-litre glass jar. The insect culture jars were kept under the rearing temperature conditions i.e., 25±1° C. for S. oryzae and T. castaneum and 30±1° C. for R. dominica.
# (§5) The infested grain/flour after an incubation period of 7 weeks was used for the experiment. The cultures were weighed into 50 gm aliquots in 21 cm×14 cm size cloth bags. One set of three test insect bags comprising R. dominica, S. oryzae and T. castaneum were kept at the bottom of the container before filling the grain.
# (§6) Another set of three-test insect bags was kept on the top layer of grains. The grain-filled containers were, then, fumigated with allyl acetate for 72 hours at 26±2° C. There were 6 doses ranging from 100 to 800 mg/litre with 3 replicates/dosage along with untreated controls. Required quantity of allyl acetate was measured in 10 and 25 ml measuring cylinder and quickly poured on to 5 gm of absorbent cotton wool kept over the grain layer in the tin container.
# (§7) Immediately after dosing, the container was closed with the lid tightly and sealed along the rim with adhesive tape. At the end of 72 hour, the lid was removed to aerate the commodity and the test insect bags were retrieved and the contents transferred to 300 ml capacity glass bottles.
# (§8) Insect survivors in the samples were recorded at weekly intervals for 8 weeks. Mortality in fumigated batches was calculated based on emergence/survivors in controls.
# rat [3] = conditions: cited from earlier work
# [4] = test system: R. dominica mixed-age cultures; assay: Fumigation in 125 litre plastic drums with 100 kg wheat, with/without perforated tubing (Example 6); format: in vivo, Rhyzopertha dominica; conditions: for Insect Survivors / mortality at 200 µg/mL: R. dominica, 200 mg/liter, 72 hours, 26 ± 2° C., 125 liter drum, 100 kg wheat; for mortality at 200 µg/mL: 72 h, read-out: % mortality based on survivors in untreated controls
# Experimental: In another set of experiments, fumigations were carried out in the plastic drums with 100 kg […] acetate (27 ml of liquid) was dispensed at one location, that is, on the top layer of the grain. In both sets of experiments, there were 3 replicates for control and fumigated batches.
# Insect mortality in fumigated batches was determined by taking into consideration of survivors in respective controls as 100%.
# [5] = test system: S. oryzae mixed-age cultures; conditions: 200 mg/liter, 26 ± 2° C., 19.5 liter tin container with 12 kg of wheat
# Experimental: Further fumigation tests were carried out with allyl acetate at 200 mg/litre and with three different exposure periods of 24, 48 and 72 hours in 19.5 litre tin containers filled with 12 kg of wheat. Mixed- age cultures of R. dominica, S. oryzae and T. castaneum were used as the test insects.
# Mixed-age cultures of S. oryzae and R. dominica were obtained by allowing 300 adults of the individual species to breed in about 1 kg of wheat in a 2-liter glass jar. To obtain mixed- age culture of T. castaneum about 300 adults were released into 1 kg of whole-wheat flour plus 5% dried yeast in a 2-litre glass jar. The insect culture jars were kept under the rearing temperature conditions i.e., 25±1° C. for S. oryzae and T. castaneum and 30±1° C. for R. dominica. The infested grain/flour after an incubation period of 7 weeks was used for the experiment. The cultures were weighed into 50 gm aliquots in 21 cm×14 cm size cloth bags. One set of three test insect bags comprising R. dominica, S. oryzae and T. castaneum were kept at the bottom of the container before filling the grain. […] Another set of three-test insect bags was kept on the top layer of grains. The grain-filled containers were, then, fumigated with allyl acetate for 24, 48 and 72 hours at 26±2° C. The commodity was treated with allyl acetate at the dosage of 200 mg/litre. Required quantity of allyl acetate was measured in 10 and 25 ml measuring cylinder and quickly poured on to 5 gm of absorbent cotton wool kept over the grain layer in the tin container. Immediately after dosing, the container was closed with the lid tightly and sealed along the rim with adhesive tape. At the end of the exposure period, the lid was removed to aerate the commodity and the test insect bags were retrieved and the contents transferred to 300 ml capacity glass bottles. Insect survivors in the samples were recorded at weekly intervals for 8 weeks. Mortality in fumigated batches was calculated based on emergence/survivors in controls.
# Cryptolestes sp. = assay: LD 50 / LD 99 of allyl acetate to adults, probit analysis (Example 2); format: in vivo; conditions: 24-hour exposure at 26 ± 2° C.
# Experimental: (§1) Assays with allyl acetate against the adults of four species of stored grain insects namely S. oryzae, R. dominica, T. castaneum and Cryptolestes sp. were carried out to determine LD 50 and LD 99 doses. […] Cryptolestes sp. was reared on wheat feed. […] The insects were exposed to different doses of allyl acetate for 24 hour in 0.85-liter desiccators to yield 20-100% mortality. There were 6 replicates for each dose along with equal number of untreated control. […] Mortality of treated insects was assessed at the end of 14 days and it was corrected for natural control mortality. The data for the individual species were subjected to probit analysis following the method of Finney (1971) to arrive at LD 50 and LD 99 values.
# Sitophilus oryzae [6] = assay: as above; format: in vivo; conditions: S. oryzae adults, 24-hour exposure at 26 ± 2° C.
# Experimental: as §1
# Rhyzopertha dominica [7] = assay: as above; format: in vivo; conditions: R. dominica adults, 24-hour exposure at 26 ± 2° C.
# Experimental: as §1
# Tribolium castaneum [8] = assay: as above; format: in vivo; conditions: T. castaneum adults, 24-hour exposure at 26 ± 2° C.
# Experimental: as §1
# Sitophilus oryzae [9] = assay: whole plant or invertebrate
# Experimental: (§2) Cryptolestes sp. was reared on wheat feed. S. oryzae, Cryptolestes sp. and T. castaneum cultures were maintained at 25±1° C. and 70% RH whereas R. dominica cultures were maintained at 30±1° C. and 70% RH. From the established cultures, 2-week-old adults were taken and counted into 10 cm×2.3 cm size test tubes at 50 per replicate. The mouth of the tube was closed with a cloth piece held by small rubber ring. The insects were exposed to a range of doses (10 to 100 mg/litre) of esters for 24 hours in 0.85-liter desicators at the laboratory temperature of 26±2° C. Pure grade esters including allyl acetate, butyl acetate, ethyl acetoacetate, isopropyl acetate and propyl acetate were procured from Merck India Ltd. In each desiccator a 9 cm diameter Whatman No. 1 filter circle was placed; the filter circle acted as evaporating surface for the injected liquids (esters). Required quantity of the ester was drawn from the bottles using 10, 25 or 50 micro litre liquid syringe. There were 6 replicates for each dose with equal number of replicates for untreated control. The exposure period in all cases was 24 hours. […] Insect mortality was assessed after 14 days. Corrected mortality was arrived at based on Abbott's formula (1925).
# Rhyzopertha dominica [10] = assay: whole plant or invertebrate
# Experimental: as §2
# Tribolium castaneum [11] = assay: whole plant or invertebrate
# Experimental: as §2
# [12] = cited from earlier work
# [13] = test system: T. castaneum mixed-age cultures; conditions: 72 hours at 26±2° C., 19.5 liter tin container with 12 kg wheat
# Description: as §3, §4, §5, §6, §7, §8
# [14] = Sitophilus oryzae, read-out: Mortality (%) (Mean ± SD)
# [15] = Rhyzopertha dominica, read-out: Mortality (%) (Mean ± SD)
# [16] = Tribolium castaneum, read-out: Mortality (%) (Mean ± SD)
structure (smiles),measurement,setting,value
C=CCOC(C)=O [allyl acetate],LC 50 rat inhalation,rat [1],LC 50 rat inhalation 1000 ppm/1 hr
same,% mortality based on survivors in controls,[2]; 100 mg/liter,(98.9) %
same,No. of survivors from 50 g lots of mixed-age cultures following treatment,[2]; 100 mg/liter,11.5
same,% mortality based on survivors in controls,[2]; 150 mg/liter,(99.9) %
same,No. of survivors from 50 g lots of mixed-age cultures following treatment,[2]; 150 mg/liter,1
same,% mortality based on survivors in controls,[2]; 200 mg/liter,(100) %
same,No. of survivors from 50 g lots of mixed-age cultures following treatment,[2]; 200 mg/liter,0
same,% mortality based on survivors in controls,[2]; 400 mg/liter,(100) %
same,No. of survivors from 50 g lots of mixed-age cultures following treatment,[2]; 400 mg/liter,0
same,% mortality based on survivors in controls,[2]; 600 mg/liter,(100) %
same,No. of survivors from 50 g lots of mixed-age cultures following treatment,[2]; 600 mg/liter,0
same,% mortality based on survivors in controls,[2]; 800 mg/liter,(100) %
same,No. of survivors from 50 g lots of mixed-age cultures following treatment,[2]; 800 mg/liter,0
same,LD 50 rat oral,rat [3],LD 50 rat oral 130 mg/kg
same,Insect Survivors,"[4]; with perforated tubing, test insect bag at bottom layer",0
same,Insect Survivors,"[4]; with perforated tubing, test insect bag at middle layer",0
same,Insect Survivors,"[4]; with perforated tubing, test insect bag at top layer",0
same,Insect Survivors,"[4]; without perforated tubing, test insect bag at bottom layer",0.67
same,Insect Survivors,"[4]; without perforated tubing, test insect bag at middle layer",0
same,Insect Survivors,"[4]; without perforated tubing, test insect bag at top layer",0
same,mortality at 200 µg/mL,"[4]; Rhyzopertha dominica, with perforated tubing, bottom layer",100%
same,mortality at 200 µg/mL,"[4]; Rhyzopertha dominica, with perforated tubing, middle layer",100%
same,mortality at 200 µg/mL,"[4]; Rhyzopertha dominica, with perforated tubing, top layer",100%
same,mortality at 200 µg/mL,"[4]; Rhyzopertha dominica, without perforated tubing, bottom layer",99.6%
same,mortality at 200 µg/mL,"[4]; Rhyzopertha dominica, without perforated tubing, middle layer",100%
same,mortality at 200 µg/mL,"[4]; Rhyzopertha dominica, without perforated tubing, top layer",100%
same,dosage for 100% kill of all stages,"[4]; Rhyzopertha dominica, all stages, preferred exposure period 72 hours",200 mg per litre of space
same,% mortality based on survivors in controls,[5]; exposure period 24 hour,(99.9) %
same,No. of survivors from 50 g lots of mixed-age cultures following treatment,[5]; exposure period 24 hour,0.33
same,% mortality based on survivors in controls,[5]; exposure period 48 hour,(99.9) %
same,No. of survivors from 50 g lots of mixed-age cultures following treatment,[5]; exposure period 48 hour,0.33
same,% mortality based on survivors in controls,[5]; exposure period 72 hour,(100) %
same,No. of survivors from 50 g lots of mixed-age cultures following treatment,[5]; exposure period 72 hour,0
same,LD 99 (mg/Liter),Cryptolestes sp.,5.44 (4.29; 15.6) mg/Liter
same,LD 50 (mg/Liter),Sitophilus oryzae [6],4.08 (3.70; 4.42) mg/Liter
same,LD 99 (mg/Liter),Sitophilus oryzae [6],12.81 (10.90; 16.15) mg/Liter
same,LD 50 (mg/Liter),Rhyzopertha dominica [7],1.69 (1.30; 2.02) mg/Liter
same,LD 99 (mg/Liter),Rhyzopertha dominica [7],7.56 (5.81; 11.67) mg/Liter
same,LD 50 (mg/Liter),Tribolium castaneum [8],6.14 (5.33; 6.80) mg/Liter
same,LD 99 (mg/Liter),Tribolium castaneum [8],11.42 (9.85; 14.92) mg/Liter
same,mortality at 10 µg/mL,Sitophilus oryzae [9]; [14],92.3 ± 12.7%
same,mortality at 20 µg/mL,Sitophilus oryzae [9]; [14],100%
same,mortality at 30 µg/mL,Sitophilus oryzae [9]; [14],100%
same,mortality at 50 µg/mL,Sitophilus oryzae [9]; [14],100%
same,mortality at 100 µg/mL,Sitophilus oryzae [9]; [14],100%
same,mortality of the adults,Sitophilus oryzae [9]; in vivo,100%
same,mortality at 10 µg/mL,Rhyzopertha dominica [10]; [15],100%
same,mortality at 20 µg/mL,Rhyzopertha dominica [10]; [15],100%
same,mortality at 30 µg/mL,Rhyzopertha dominica [10]; [15],100%
same,mortality at 50 µg/mL,Rhyzopertha dominica [10]; [15],100%
same,mortality at 100 µg/mL,Rhyzopertha dominica [10]; [15],100%
same,mortality of the adults,Rhyzopertha dominica [10]; in vivo,100%
same,mortality at 10 µg/mL,Tribolium castaneum [11]; [16],96 ± 3.7%
same,mortality at 20 µg/mL,Tribolium castaneum [11]; [16],100%
same,mortality at 30 µg/mL,Tribolium castaneum [11]; [16],100%
same,mortality at 50 µg/mL,Tribolium castaneum [11]; [16],100%
same,mortality at 100 µg/mL,Tribolium castaneum [11]; [16],100%
same,mortality of the adults,Tribolium castaneum [11]; in vivo,100%
same,Mammalian Toxicity (irritation),"[12]; eyes, respiratory system and skin","Irritating to eyes, respiratory"
same,Mammalian Toxicity,"[12]; routes of toxicity: inhalation, contact and ingestion","Toxic by inhalation,"
same,% mortality based on survivors in controls,[13]; 100 mg/liter,(100) %
same,No. of survivors from 50 g lots of mixed-age cultures following treatment,[13]; 100 mg/liter,0
same,% mortality based on survivors in controls,[13]; 150 mg/liter,(100) %
same,No. of survivors from 50 g lots of mixed-age cultures following treatment,[13]; 150 mg/liter,0
same,% mortality based on survivors in controls,[13]; 200 mg/liter,(100) %
same,No. of survivors from 50 g lots of mixed-age cultures following treatment,[13]; 200 mg/liter,0
same,% mortality based on survivors in controls,[13]; 400 mg/liter,(100) %
same,No. of survivors from 50 g lots of mixed-age cultures following treatment,[13]; 400 mg/liter,0
same,% mortality based on survivors in controls,[13]; 600 mg/liter,(100) %
same,No. of survivors from 50 g lots of mixed-age cultures following treatment,[13]; 600 mg/liter,0
same,% mortality based on survivors in controls,[13]; 800 mg/liter,(100) %
same,No. of survivors from 50 g lots of mixed-age cultures following treatment,[13]; 800 mg/liter,0
